Test results reported in article PMC9912108, “The actin bundling activity of ITPKA mainly accounts for its migration-promoting effect in lung cancer cells” (Bioscience Reports, 2023).

Key:
[1] = biological target: T1, ITPKA (Ins(1,4,5)P3-kinase-A) (Homo sapiens, UniProt P23677); assay: coupled optical InsP3-kinase assay (pyruvate kinase/lactate dehydrogenase, NADH) with […] recombinant ITPKA; type: biochemical
T1 construct: expressed in bacteria as GFP-His-fusion protein, tags cleaved with TEV protease
T1 sequence (P23677 whole entry, the tested form may be a part): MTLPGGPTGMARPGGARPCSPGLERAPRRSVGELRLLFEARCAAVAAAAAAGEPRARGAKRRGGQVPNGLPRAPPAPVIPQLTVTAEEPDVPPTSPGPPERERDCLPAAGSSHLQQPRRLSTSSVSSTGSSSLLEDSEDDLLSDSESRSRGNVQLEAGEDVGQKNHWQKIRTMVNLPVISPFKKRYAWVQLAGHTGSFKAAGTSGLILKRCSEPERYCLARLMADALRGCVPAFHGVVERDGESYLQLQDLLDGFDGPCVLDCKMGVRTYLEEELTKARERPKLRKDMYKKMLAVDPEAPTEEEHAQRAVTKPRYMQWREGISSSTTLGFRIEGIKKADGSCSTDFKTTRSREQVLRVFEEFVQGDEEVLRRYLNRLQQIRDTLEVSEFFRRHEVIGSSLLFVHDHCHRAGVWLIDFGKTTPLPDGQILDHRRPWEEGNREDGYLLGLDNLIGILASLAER

[2] = biological target: F-actin (filamentous actin) (chicken) (UniProt P68139); assay: co-sedimentation; F-actin bundling assay: G-actin in F-actin buffer (20 mM Tris-HCl pH 7.5, 100 mM KCl, 2 mM MgCl2, 1 mM EGTA, 1 mM DTT, 0.5 mM ATP) with or without ITPKA proteins, 20 min at RT, 10,000 g for 20 min at 4°C; about 1 µM F-actin, 0.5 µM ITPKA, 10-fold excess of ITPKA^L34P; supernatant and pellet on Coomassie-stained SDS-PAGE

Ins(1,4,5)P3-kinase-A (ITPKA), wild type, sequence (P23677 whole entry): as the sequence (P23677 whole entry, the tested form may be a part) above

| IC50 [1] | percent of F-actin bundled [2] | Compound |
| --- | --- | --- |
| 17 nM |  | C[C@@H]1CN(Cc2cn[nH]c2-c2ccc(C#N)cc2)CCN1c1ccc(C(F)(F)F)cn1 [GNF362] |
|  | 60% | Ins(1,4,5)P3-kinase-A (ITPKA), wild type (from UniProt P23677 1-461) (enzyme) |
